According to PubChem BioAssay AID1918999 (Molecular Pharmacology Branch, DTP, NCI, 2023):

System: 556581-035-R-J1-PDC complex spheroid growth
Assay: Anticancer human tumor 556581-035-R-J1-PDC patient-derived ovarian carcinoma cell line growth inhibition [AhR]
Settings: for IC50: curve of first compound; for viability, T/C: stronger effect = lower value
Method in brief: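 Complex tumor spheroids co-cultured with HUVEC and human MSC stroma; AhR antagonists tested in combination with standard-of-care and investigational agents. Top concentration at or near clinical Cmax (else 10 microM), half-log dilutions; growth expressed as percent test/control.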

[1] = second compound 0.1 µM, first compound 0.0316 µM
[2] = second compound 0.1 µM, first compound 0.1 µM
[3] = second compound 0.1 µM, first compound 0.316 µM
[4] = second compound 0.1 µM, first compound 1 µM
[5] = second compound 0.1 µM, first compound 3.16 µM
[6] = second compound 0.1 µM, first compound 10 µM
[7] = second compound 0.316 µM, first compound 0.0316 µM
[8] = second compound 0.316 µM, first compound 0.1 µM
[9] = second compound 0.316 µM, first compound 0.316 µM
[10] = second compound 0.316 µM, first compound 1 µM
[11] = second compound 0.316 µM, first compound 3.16 µM
[12] = second compound 0.316 µM, first compound 10 µM
[13] = second compound 1 µM, first compound 0.0316 µM
[14] = second compound 1 µM, first compound 0.1 µM
[15] = second compound 1 µM, first compound 0.316 µM
[16] = second compound 1 µM, first compound 1 µM
[17] = second compound 1 µM, first compound 3.16 µM
[18] = second compound 1 µM, first compound 10 µM
[19] = second compound 3.16 µM, first compound 0.0316 µM
[20] = second compound 3.16 µM, first compound 0.1 µM
[21] = second compound 3.16 µM, first compound 0.316 µM
[22] = second compound 3.16 µM, first compound 1 µM
[23] = second compound 3.16 µM, first compound 3.16 µM
[24] = second compound 3.16 µM, first compound 10 µM
[25] = second compound 10 µM, first compound 0.0316 µM
[26] = second compound 10 µM, first compound 0.1 µM
[27] = second compound 10 µM, first compound 0.316 µM
[28] = second compound 10 µM, first compound 1 µM
[29] = second compound 10 µM, first compound 3.16 µM
[30] = second compound 10 µM, first compound 10 µM
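Throughout, for viability, T/C: compound exposure lasted 7 days; 100% = DMSO vehicle control growth.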

SMILES	IC50 (second compound 0.1 µM) [µM]	IC50 (second compound 0.316 µM) [µM]	IC50 (second compound 1 µM) [µM]	IC50 (second compound 3.16 µM) [µM]	IC50 (second compound 10 µM) [µM]	viability, T/C [1] [%]	viability, T/C [2] [%]	viability, T/C [3] [%]	viability, T/C [4] [%]	viability, T/C [5] [%]	viability, T/C [6] [%]	viability, T/C [7] [%]	viability, T/C [8] [%]	viability, T/C [9] [%]	viability, T/C [13] [%]	viability, T/C [14] [%]	viability, T/C [19] [%]	viability, T/C [20] [%]	viability, T/C [25] [%]	viability, T/C [26] [%]	further results
COc1cc(Nc2ncc3c(n2)-c2ccc(Cl)cc2C(c2c(F)cccc2OC)=NC3)ccc1C(=O)O + Cc1cncc(-c2nc(NCCc3c[nH]c4ccccc34)c3ncn(C(C)C)c3n2)c1	> 10	> 10	> 10	> 10	> 10	97.2	83.4	79.5	71.2	71.1	58.4	91.5	87.9	72.5	84.9	81.9	86.2	76.9	89.4	74.1	viability, T/C [10]: 76.8%; viability, T/C [11]: 62.1%; viability, T/C [12]: 62.3%; viability, T/C [15]: 78.7%; viability, T/C [16]: 72.6%; viability, T/C [17]: 67.8%; viability, T/C [18]: 65.9%; viability, T/C [21]: 77.2%; viability, T/C [22]: 73.2%; viability, T/C [23]: 72.8%; viability, T/C [24]: 65.9%; viability, T/C [27]: 78.1%; viability, T/C [28]: 70.7%; viability, T/C [29]: 71%; viability, T/C [30]: 75.2%
Cn1ncnc1C1c2n[nH]c(=O)c3cc(F)cc(c23)NC1c1ccc(F)cc1 (stereo not given) + Cc1cncc(-c2nc(NCCc3c[nH]c4ccccc34)c3ncn(C(C)C)c3n2)c1	> 0.1	> 0.1	> 0.1	> 0.1	> 0.1	92.4	90.3	–	–	–	–	86.9	86.6	–	103	98.6	85.2	101	89.9	79.1	viability, T/C (second compound 0.1 µM, first compound 0.000316 µM): 105%; viability, T/C (second compound 0.1 µM, first compound 0.001 µM): 102%; viability, T/C (second compound 0.1 µM, first compound 0.00316 µM): 95.1%; viability, T/C (second compound 0.1 µM, first compound 0.01 µM): 110%; viability, T/C (second compound 0.316 µM, first compound 0.000316 µM): 99.2%; viability, T/C (second compound 0.316 µM, first compound 0.001 µM): 99.3%; viability, T/C (second compound 0.316 µM, first compound 0.00316 µM): 101%; viability, T/C (second compound 0.316 µM, first compound 0.01 µM): 89.8%; viability, T/C (second compound 1 µM, first compound 0.000316 µM): 96.1%; viability, T/C (second compound 1 µM, first compound 0.001 µM): 104%; viability, T/C (second compound 1 µM, first compound 0.00316 µM): 102%; viability, T/C (second compound 1 µM, first compound 0.01 µM): 102%; viability, T/C (second compound 3.16 µM, first compound 0.000316 µM): 90.6%; viability, T/C (second compound 3.16 µM, first compound 0.001 µM): 107%; viability, T/C (second compound 3.16 µM, first compound 0.00316 µM): 97.7%; viability, T/C (second compound 3.16 µM, first compound 0.01 µM): 91.8%; viability, T/C (second compound 10 µM, first compound 0.000316 µM): 87.2%; viability, T/C (second compound 10 µM, first compound 0.001 µM): 83.4%; viability, T/C (second compound 10 µM, first compound 0.00316 µM): 92%; viability, T/C (second compound 10 µM, first compound 0.01 µM): 85.7%
NS(=O)(=O)OCC1CC(n2ccc3c(NC4CCc5ccccc54)ncnc32)CC1O (stereo not given) + Cc1cncc(-c2nc(NCCc3c[nH]c4ccccc34)c3ncn(C(C)C)c3n2)c1	> 10	> 10	> 10	> 10	2.67	109	102	95.9	90.5	81.1	62.5	98.1	104	92.7	112	120	99.9	119	87.8	95.5	viability, T/C [10]: 85.8%; viability, T/C [11]: 72.7%; viability, T/C [12]: 62.2%; viability, T/C [15]: 87.7%; viability, T/C [16]: 81.6%; viability, T/C [17]: 74%; viability, T/C [18]: 63.8%; viability, T/C [21]: 96.4%; viability, T/C [22]: 84.8%; viability, T/C [23]: 70.5%; viability, T/C [24]: 49.5%; viability, T/C [27]: 71.9%; viability, T/C [28]: 71%; viability, T/C [29]: 45.6%; viability, T/C [30]: 27.6%
